In one assay the test system is NCI-H460 cells. Nature of the assay: 48-hour cellular proliferation assay, sulforhodamine stain (human lung large cell carcinoma, MDR negative). The format is cell-based. Conditions: Homo sapiens, NCI-H460 cells. As for the experimental part:
(§1) Compounds of this invention were tested in a 48-hour cellular proliferation assay that uses human colon adenocarcinoma, MDR positive (HCT-15) cells, and human lung large cell carcinoma, MDR negative (NCI-H460) cells, in the 96-well microtitre format described in Skehan P., et al. New Colorimetric Cytotoxicity Assay for Anticancer Drug Screening. 1990, J. Natl. Cancer Inst. 82:1107-1112, hereby incorporated by reference. Briefly, the wells of a microtitre plate were charged sequentially with cultured cells and compounds of the invention (1.0×10^-4 to 1.0×10^-11 M in 10% DMSO prepared by dissolving compounds of the invention in DMSO and adding 11 μL of the DMSO solution to 100 μL of culture medium for a final DMSO concentration of 10%). Two of the following controls were also present in each microtitre plate: a solvent (DMSO) control without drug that yielded a 0% inhibition level and a trichloroacetic acid-treated well that yielded a 100% inhibition level. The cells were grown in culture (37° C., 5% CO2 atmosphere) for 48 hours then fixed by the addition of trichloroacetic acid. The wells were stained with sulforhodamine, washed with 1% acetic acid, and treated with 0.01 M tris buffer (100 μL) to solubilize the adherent dye. The absorbance of the dye solution was measured with a Molecular Devices SpectraMax340 plate reader. Percent inhibition and Inhibitory Concentrations (IC50) values were obtained by calculating the proportional response of the experimental values to the absorbance values of the controls.

Another assay relates to HCT-15 cells. Nature of the assay: 48-hour cellular proliferation assay, sulforhodamine stain (human colon adenocarcinoma, MDR positive). The format is cell-based. Conditions: Homo sapiens. Here is the method:
as §1

Results on 14 compounds are retold here after patent publication US6228868A, “Oxazoline antiproliferative agents” (Abbott Laboratories, priority 1999, dated 2001).

What is called IC50 is the concentration at which inhibition is half-maximal. Lower therefore signals greater potency.

As for `COc1cc(C2CN=C(c3cc(F)c4c(ccn4C)c3)O2)cc(OC)c1OC` (stereo not shown) [Example 64, 2-(1-methyl-7-fluoro-5-indolyl)-5-(3,4,5-trimethoxyphenyl)-Δ2,3-oxazoline], the IC50 in the assay on NCI-H460 cells (values in nM) amounted to 2.9 nM; in the assay on HCT-15 cells (values in nM) it was 3.96 nM.

Take `COc1cc(C2CN=C(c3cc(Cl)c4[nH]ccc4c3)O2)cc(OC)c1OC` (stereo not shown) [Example 65, 2-(7-chloro-5-indolyl)-5-(3,4,5-trimethoxyphenyl)-Δ2,3-oxazoline]: the half-maximal inhibitory concentration (IC50) in the assay on NCI-H460 cells (values in nM) is 51 nM; with HCT-15 cells (values in nM), 37 nM.

For the compound `COc1cc(C2CN=C(c3cc(Cl)c4c(ccn4C)c3)O2)cc(OC)c1OC` (stereo not shown) [Example 66, 2-(1-methyl-7-chloro-5-indolyl)-5-(3,4,5-trimethoxyphenyl)-Δ2,3-oxazoline], the concentration for half-maximal inhibition (IC50) is 100 nM in the assay with NCI-H460 cells (values in nM) and 46 nM in the assay on HCT-15 cells (values in nM).

`COc1cc(C2CN=C(c3ccc4[nH]cc(F)c4c3)O2)cc(OC)c1OC` (stereo not shown) [Example 67, 2-(3-fluoro-5-indolyl)-5-(3,4,5-trimethoxyphenyl)-Δ2,3-oxazoline]: the IC50 with NCI-H460 cells (values in nM) is 38 nM; in the assay with HCT-15 cells (values in nM), 23 nM.

As to `COc1cc(C2CN=C(c3ccc4c(c3)c(F)cn4C)O2)cc(OC)c1OC` (stereo not shown) [Example 68], the IC50 in the assay on NCI-H460 cells (values in nM) came to 150 nM; in the assay on HCT-15 cells (values in nM) it was 47 nM.

For the compound `COc1cc(C2CN=C(c3ccc4c(ccn4CO)c3)O2)cc(OC)c1OC` (stereo not shown) [Example 69, 2-(1-hydroxymethylindol-5-yl)-5-(3,4,5-trimethoxyphenyl)-Δ2,3-oxazoline], the half-maximal inhibitory concentration (IC50) in the assay with NCI-H460 cells (values in nM) is 680 nM; in the assay with HCT-15 cells (values in nM) it was 450 nM.

For `COCn1ccc2cc(C3=NCC(c4cc(OC)c(OC)c(OC)c4)O3)ccc21` (stereo not shown) [Example 70, 2-(1-methoxymethyl-5-indolyl)-5-(3,4,5-trimethoxyphenyl)-Δ2,3-oxazoline], the half-inhibitory concentration (IC50) in the assay on NCI-H460 cells (values in nM) is 210 nM; in the assay with HCT-15 cells (values in nM), 170 nM.

In the case of `COc1cc(C2CN=C(c3ccc4c(c3)cc(C)n4C)O2)cc(OC)c1OC` (stereo not shown) [Example 71], the results for the IC50 in the assay on NCI-H460 cells (values in nM) and in the assay with HCT-15 cells (values in nM) were 17 nM and 5 nM, respectively.

For `COc1cc(C2CN=C(c3cc(C)c4[nH]ccc4c3)O2)cc(OC)c1OC` (stereo not shown) [Example 72, 2-(7-methyl-5-indolyl)-5-(3,4,5-trimethoxyphenyl)-Δ2,3-oxazoline], the concentration for half-maximal inhibition (IC50) was found to be 36 nM in the assay on NCI-H460 cells (values in nM) and 11 nM in the assay on HCT-15 cells (values in nM).

With `COc1cc(C2CN=C(c3cc(C)c4c(ccn4C)c3)O2)cc(OC)c1OC` (stereo not shown) [Example 73, 2-(1,7-dimethyl-5-indolyl)-5-(3,4,5-trimethoxyphenyl)-Δ2,3-oxazoline], the IC50 worked out at 41 nM in the assay on NCI-H460 cells (values in nM) and 34 nM with HCT-15 cells (values in nM).

Consider `COc1cc(C2CN=C(c3cc(C)c4c(c3)cc(C)n4C)O2)cc(OC)c1OC` (stereo not shown) [Example 74, 2-(1,2,7-trimethylindol-5-yl)-5-(3,4,5-trimethoxyphenyl)-Δ2,3-oxazoline], for which the IC50 in the assay with NCI-H460 cells (values given in μM) turned out to be 1200 nM; with HCT-15 cells (values given in μM) it was 1300 nM.

`COc1cc(C2CN=C(c3ccc4c(c3)nc(C)n4C)O2)cc(OC)c1OC` (stereo not shown) [Example 75, 2-(1,2-dimethylbenzimidazol-5-yl)-5-(3,4,5-trimethoxyphenyl)-Δ2,3-oxazoline]: the 50% inhibitory concentration (IC50) was 3800 nM in the assay with NCI-H460 cells (values given in μM) and 1900 nM with HCT-15 cells (values given in μM).

Consider `COc1cc(C2CN=C(c3ccc4c(c3)c(C(=O)C(F)(F)F)cn4C)O2)cc(OC)c1OC` (stereo not shown) [Example 77, 2-(1-methyl-3-trifluoroacetylindol-5-yl)-5-(3,4,5-trimethoxyphenyl)-Δ2,3-oxazoline], for which the half-maximal inhibitory concentration (IC50) in the assay on NCI-H460 cells (values given in μM) was 4200 nM; in the assay on HCT-15 cells (values given in μM), 3800 nM.

`COc1cc(C2CN=C(c3ccc4c(ccn4CC(F)(F)F)c3)O2)cc(OC)c1OC` (stereo not shown) [Example 78, 2-(1-(2,2,2-trifluoroethyl)indol-5-yl)-5-(3,4,5-trimethoxyphenyl)-Δ2,3-oxazoline]: the IC50 turned out to be 3500 nM in the assay on NCI-H460 cells (values given in μM) and 1900 nM in the assay with HCT-15 cells (values given in μM).
